In article PMC3197159, “The Atypical Stimulant and Nootropic Modafinil Interacts with the Dopamine Transporter in a Different Manner than Classical Cocaine-Like Inhibitors” (PLoS ONE, 2011):

Assays:
[1] = molecular target: WT human DAT (Homo sapiens, UniProt Q01959); experiment: [3H]CFT binding inhibition, intact HEK293 cells expressing WT hDAT; settings: inhibition by cold β-CFT
[2] = system: NET; design: method as in Madras et al. (2006) 53; settings: ref Madras et al. (2006) 53; read-out: IC50, inhibition of noradrenaline uptake by the NET; cited from earlier work

Chain of WT human DAT (Q01959 whole entry): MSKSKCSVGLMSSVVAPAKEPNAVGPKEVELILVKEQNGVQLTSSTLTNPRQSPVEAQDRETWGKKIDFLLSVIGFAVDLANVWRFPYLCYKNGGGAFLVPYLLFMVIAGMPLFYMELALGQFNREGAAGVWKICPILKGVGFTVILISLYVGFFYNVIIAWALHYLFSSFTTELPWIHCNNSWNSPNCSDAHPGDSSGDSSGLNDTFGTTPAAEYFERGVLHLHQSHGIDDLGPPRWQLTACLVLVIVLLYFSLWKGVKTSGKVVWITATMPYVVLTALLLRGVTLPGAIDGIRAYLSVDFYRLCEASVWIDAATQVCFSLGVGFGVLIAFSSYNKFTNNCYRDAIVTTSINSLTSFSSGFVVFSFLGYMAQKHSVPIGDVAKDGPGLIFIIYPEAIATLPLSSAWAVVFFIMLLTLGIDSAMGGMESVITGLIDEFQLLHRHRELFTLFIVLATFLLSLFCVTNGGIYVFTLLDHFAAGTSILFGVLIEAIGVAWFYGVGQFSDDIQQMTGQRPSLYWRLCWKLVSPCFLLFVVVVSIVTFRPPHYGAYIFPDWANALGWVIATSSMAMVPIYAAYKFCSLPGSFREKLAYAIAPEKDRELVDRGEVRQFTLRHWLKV

| Structure (SMILES) | Bmax of [3H]CFT binding, sodium-free + Zn2+ ([1]; sodium-free conditions with 10 µM Zn2+) [fmole/well] | Bmax of [3H]CFT binding, sodium-free ([1]; sodium-free conditions, no Zn2+) [fmole/well] | IC50 [2] [µM] |
| --- | --- | --- | --- |
| COC(=O)C1C(c2ccc(F)cc2)CC2CCC1N2C (stereo not drawn) [β-CFT] | 502±78 | 125±15.8 |  |
